Series [1] has as its target T1, human HPK1 (Homo sapiens, UniProt Q92918). The series can be described thus: Assay of in vitro HPK1 enzymatic activity (ADP-Glo). It counts as biochemical. To be noted: 7 nM kinase, 20 uM ATP. The procedure: Compounds were evaluated for their ability to inhibit human HPK1 by IC50 determination using the ADP-Glo method to measure the kinase activity.
Buffer conditions of the enzyme: 50 mM Hepes (pH 7.5), 10 mM MgCl2, 1 mM EGTA, 0.01% Brij35, 2 mM DTT.
Preparation of the Kinase and substrate mixture: the working concentration of the kinase in the HPK1 reaction solution was 7 nM and the working concentration of ATP was 20 uM.
The compound was diluted with DMSO in a dilution plate, with a maximum starting concentration of 1 uM and 10 concentration gradient points (4-fold dilution).
Each of the above 10 concentration gradient points of the compound was then diluted 50-fold into the kinase reaction buffer and shaken on a shaker for 20 min. The kinase was prepared in an enzyme reaction buffer and 2 μl of the HPK1 kinase was added per well of the reaction plate at a HPK1 kinase concentration of 7 nM.
1 μl of diluted compound in the buffer was added per well, and the plate was sealed with a plate sealing film, centrifuged at 1000 g for 30 seconds, and left at room temperature for 10 minutes. An ATP solution was prepared with an enzyme reaction buffer and 2 μl of the ATP solution was added to the reaction plate (the working concentration of ATP was 20 uM). The plate was sealed with a plate sealing film, centrifuged at 1000 g for 30 seconds, and reacted at room temperature for 60 minutes. 4 μL of ADP-Glu was transferred to a 384 reaction plate, centrifuged at 1000 rpm/min for 1 min, and incubated at 25° C. for 40 min. 8 μL of the Detection solution was transferred to a 384 reaction plate, centrifuged at 1000 rpm/min for 1 min, and incubated at 25° C. for 40 min. The RLU (Relative luminescence unit) signal was read using a BMG microplate reader, and the signal intensity was used to characterize the activity level of the kinase.
The kinase activity data was expressed by comparing the kinase activity of the test compound and the blank group (containing only DMSO), and the IC50 value was obtained by curve fitting using the Prism software (GraphPad7.0).
(In general: ADP-Glo first removes unused ATP, then detects ADP through luciferase.)

Series [2] deals with T1, human HPK1. The series can be described thus: HPK1 protein degradation assay (WB) in RAMOS cell line. The class given is cell-based. Set-up: The RAMOS cell line was selected as the degradation cell line; endogenous in cells; host or cells: RAMOS. To be noted: RAMOS cells, 16 h, Western blot. The procedure:
Degradation of HPK1 proteins and DC50/Dmax were determined by the WB method in order to evaluate the in vitro degradative ability of the compound.
The RAMOS cell line was selected as the degradation cell line. Incubation Conditions: RMPI 1640 culture medium supplemented with 10% FBS, 37° C., 5% CO2.
• (1) Plating cells: in a 6 cm dish with 4 ml of the culture medium, cells plated at 2×10^6 cells/dish. • (2) Drug addition: the compound (stock solution concentration: 10 mM) was diluted with DMSO in a dilution plate, with a maximum starting concentration of 10 μM and 7 concentration gradient points (3-fold dilution). 4 μl of each diluted solution was taken, added to a dish, and incubated for 16 h. • (3) Cells were harvested, added with a lysis buffer, and centrifuged at 12000 rpm/min for 20 min. The supernatant was collected. After quantification using a BCA quantification kit, 5× loading buffer was added to denature for 10 min. • (4) 10 μg of denatured protein was added to the SDS-PAGE gel. After electrophoresis and membrane transfer, the plate was blocked with 5% BSA for 1 h, incubate with the primary antibody at 4° C. overnight. After washing off the primary antibody, the secondary antibody was added, incubated at room temperature for 1 h, and washed off.
Imaging: the membranes were scanned with a two-color fluorescence imaging system.

Series [3] can be described thus: Pharmacokinetics of single administration in mice. It counts as in vivo, Balb/c mice. Set-up: Vz: unit not given here. The procedure:
Female Balb/c mice (weighing 18-22 g) were fasted overnight prior to the experiment. The test compound was dissolved in the vehicle, DMSO:PEG400:30% captisol:HCl=5:20:70:5 (v/v/v/v), and administered by single oral gavage at a dose of 10 mg/kg or by intravenous injection at a dose of 2 mg/kg. Blood samples were collected from the orbital venous plexus at 15 minutes, 30 minutes, and 1, 2, 4, 6, 8, and 24 h after administration. Approximately 0.08 mL of blood was collected at each time point and placed in a 1.5 mL centrifuge tube containing EDTA-2K anticoagulant. Blood samples were centrifuged (3200 g, 10 min, 4° C.) within 2 h to obtain plasma samples. Plasma samples were frozen at −70° C. to −80° C. in an ultra-low temperature freezer prior to processing. Before sample processing, the plasma samples were taken out of the freezer. After thawing at room temperature, 20 μL of each plasma sample was added into a 96-well plate, and then 120 μL of acetonitrile containing an internal standard was added to precipitate proteins. […] The supernatant was taken and mixed with an equal volume of 0.1% aqueous formic acid solution for LC-MS/MS analysis.

Where [4] appears, read: female, Balb/c, mouse, plasma, iv 2 mg/kg.
Where [5] appears, read: female, Balb/c, mouse, plasma, iv 2 mg/kg, read-out: AUC.
[6] abbreviates: female, Balb/c, mouse, plasma, po 10 mg/kg.
Where [7] appears, read: female, Balb/c, mouse, plasma, po 10 mg/kg vs iv 2 mg/kg.
Where [8] appears, read: female, Balb/c, mouse, plasma, po 10 mg/kg, read-out: AUC.
The mark [9] stands for this setting: female, Balb/c, mouse, plasma, po 10 mg/kg, read-out: Cmax.

SMILES strings stand for the structures. Like-named read-outs stand apart in the source and are kept apart here.

T1 sequence (Q92918 whole entry): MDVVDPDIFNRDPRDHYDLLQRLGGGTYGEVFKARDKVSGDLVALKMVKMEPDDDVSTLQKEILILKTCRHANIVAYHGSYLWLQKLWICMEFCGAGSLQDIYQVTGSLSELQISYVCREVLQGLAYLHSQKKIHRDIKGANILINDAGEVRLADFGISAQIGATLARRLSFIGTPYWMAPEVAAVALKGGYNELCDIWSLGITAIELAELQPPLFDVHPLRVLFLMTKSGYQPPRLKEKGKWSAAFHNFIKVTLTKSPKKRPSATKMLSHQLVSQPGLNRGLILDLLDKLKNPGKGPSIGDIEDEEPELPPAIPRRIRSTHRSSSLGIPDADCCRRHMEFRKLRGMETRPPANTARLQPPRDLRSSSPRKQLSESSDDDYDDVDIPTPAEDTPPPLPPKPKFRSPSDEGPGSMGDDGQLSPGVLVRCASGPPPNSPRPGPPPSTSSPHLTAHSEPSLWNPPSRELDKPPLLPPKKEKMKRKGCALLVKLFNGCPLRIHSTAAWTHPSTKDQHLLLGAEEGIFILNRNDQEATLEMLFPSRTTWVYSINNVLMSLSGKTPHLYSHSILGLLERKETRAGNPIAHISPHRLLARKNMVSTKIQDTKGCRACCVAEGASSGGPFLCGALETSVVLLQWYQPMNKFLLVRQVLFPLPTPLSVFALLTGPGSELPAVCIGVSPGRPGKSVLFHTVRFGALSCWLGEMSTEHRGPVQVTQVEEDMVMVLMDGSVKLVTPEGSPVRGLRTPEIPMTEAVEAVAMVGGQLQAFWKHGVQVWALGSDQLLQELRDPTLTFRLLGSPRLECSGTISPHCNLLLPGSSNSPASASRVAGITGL

With `CCN1CCC(n2cc(-c3c[nH]c4ncc(-c5cnc(N6CCN(C(=O)c7ccc(N8CCC(=O)NC8=O)cc7)CC6)c(C)c5)nc34)cn2)CC1` [Compound C001], the IC50 – broadly, the concentration that gives 50% inhibition – in series [1] was 5.2 nM.

Take `CCN1CCC(n2cc(-c3c[nH]c4ncc(-c5cnc(N6CCN(CC7CCN(C(=O)c8cccc(N9CCC(=O)NC9=O)c8)CC7)CC6)c(C)c5)nc34)cn2)CC1` [Compound C002]: half-maximal inhibition in series [1] (IC50) was put at 2.6 nM.

As for `CCN1CCC(n2cc(-c3c[nH]c4ncc(-c5cnc(N6CCN(CC7CCN(C(=O)c8ccc(Cl)c(N9CCC(=O)NC9=O)c8)CC7)CC6)c(C)c5)nc34)cn2)CC1` [Compound C004], half-maximal inhibition in series [1] (IC50) was put at 1.6 nM.

As to `CCN1CCC(n2cc(-c3c[nH]c4ncc(-c5cnc(OCC(=O)N6CCC(c7ccc(NC8CCC(=O)NC8=O)cc7)CC6)c(C)c5)nc34)cn2)CC1` (stereo not drawn) [Compound C007], the IC50 in series [1] came out at 5.2 nM.

`CCN1CCC(n2cc(-c3c[nH]c4ncc(-c5cnc(OCC(=O)Nc6ccc(NC7CCC(=O)NC7=O)cc6)c(F)c5)nc34)cn2)CC1` (stereo not drawn) [Compound C008] registered an IC50 in series [1] of 3.5 nM.

In series [1], `CCN1CCC(n2cc(-c3c[nH]c4ncc(-c5cnc(NCCNC(=O)c6cccc(N7CCC(=O)NC7=O)c6)c(C)c5)nc34)cn2)CC1` [Compound C009] registered an IC50 of 8.8 nM.

The compound `CCN1CCC(n2cc(-c3c[nH]c4ncc(-c5cnc(N6CCN(CC7CN(C(=O)c8cccc(N9CCC(=O)NC9=O)c8)C7)CC6)c(C)c5)nc34)cn2)CC1` [Compound C011] showed a half-inhibitory concentration (IC50) in series [1] of 0.7 nM.

Consider `CCN1CCC(n2cc(-c3c[nH]c4ncc(-c5cnc(N6CCN(CC7CN(c8cccc9c8C(=O)N(C8CCC(=O)NC8=O)C9=O)C7)CC6)c(C)c5)nc34)cn2)CC1` (stereo not drawn) [Compound C012], for which, in series [1], 1.9 nM corresponded to half-maximal inhibition (IC50).

Consider `CCN1CCC(n2cc(-c3c[nH]c4ncc(-c5cnc(OC6CCN(C(=O)c7cccc(N8CCC(=O)NC8=O)c7)CC6)c(C)c5)nc34)cn2)CC1` [Compound C014], for which 1.5 nM corresponded to half-maximal inhibition in series [1] (IC50).

In turn, `CCN1CCC(n2cc(-c3c[nH]c4ncc(-c5cnc(OC6CN(C(=O)c7cccc(N8CCC(=O)NC8=O)c7)C6)c(C)c5)nc34)cn2)CC1` [Compound C015] registered a half-inhibitory concentration (IC50) in series [1] of 6.2 nM.

With `O=C1CCN(c2cc(C(=O)N3CCC(CC4CCN(c5ccc(-c6cnc7[nH]cc(-c8cnn(CC(F)F)c8)c7n6)cn5)CC4)CC3)ccc2Cl)C(=O)N1` [Compound C195], in series [2], half-maximal degradation (DC50) was put at 18.7 nM and the Dmax (in general, the largest share of the target that was removed) was 80.7%. Moreover, in series [3] (setting [4]), the clearance (commonly the rate of elimination divided by the concentration) was 0.0471 L/h/kg and the half-life – broadly, the time needed for the level to fall by half in the phase considered – was 2.41 h. In addition, in series [3] (setting [5]), the AUC (commonly concentration integrated over time) was determined as 42.5 µg·h/mL. The same compound gave a half-life in series [3] (setting [6]) of 2.8 h. For the same compound, the bioavailability (commonly dose-corrected exposure relative to a reference, in per cent) in series [3] (setting [7]) is 20.7%. Moreover, the AUC in series [3] (setting [8]) worked out at 44 µg·h/mL. The Cmax (usually the highest concentration seen after dosing) in series [3] (setting [9]) was 14.3 µg/mL. Also, the Vz in series [3] (iv 2 mg/kg) came out at 164.

`O=C1CCN(c2cc(C(=O)N3CCC(CC4CCN(c5ccc(-c6cnc7[nH]cc(-c8cnn(CCF)c8)c7n6)cn5)CC4)CC3)ccc2Cl)C(=O)N1` [Compound C197]: in series [2], the DC50 (as a rule, the midpoint of the concentration-degradation curve) is 5.28 nM and the Dmax came to 77.5%. Besides, the clearance in series [3] (setting [4]) is 0.27 L/h/kg. In series [3] (iv 2 mg/kg), the exposure (AUC) came to 7.397 µg·h/mL, the Vz was 917 and the t1/2 was 2.35 h. In series [3] (po 10 mg/kg), the AUC worked out at 9.202 µg·h/mL, the Cmax stood at 4.68 µg/mL and the t1/2 was found to be 3.18 h. Also, the F % in series [3] (po 10 mg/kg vs iv 2 mg/kg) was determined as 25.1%.

In series [2], `COCCn1cc(-c2c[nH]c3ncc(-c4ccc(N5CCC(CC6CCN(C(=O)c7ccc(Cl)c(N8CCC(=O)NC8=O)c7)CC6)CC5)nc4)nc23)cn1` [Compound C201] came in with a DC50 of 30.6 nM and a Dmax of 76.1%. In series [3] (setting [4]), this compound showed a clearance of 0.395 L/h/kg and a half-life of 2.16 h. The AUC in series [3] (setting [5]) is 5.05 µg·h/mL. The same compound had a half-life in series [3] (setting [6]) of 2.63 h. This compound came in with a bioavailability in series [3] (setting [7]) of 34.2%. In series [3] (setting [8]), the AUC worked out at 8.66 µg·h/mL. Further, the Cmax in series [3] (setting [9]) is 4.5 µg/mL. The same compound yielded a Vz in series [3] (iv 2 mg/kg) of 1230.

In series [2], `O=C1CCC(c2cc(C(=O)N3CCC(CC4CCN(c5ccc(-c6cnc7[nH]cc(-c8cnn(CCO)c8)c7n6)cn5)CC4)CC3)ccc2Cl)C(=O)N1` (stereo not drawn) [Compound C209] displayed a DC50 of 29 nM and a Dmax of 84%.

The values are drawn from US20260116884A1, “PROTAC CHIMERIC COMPOUND, PREPARATION METHOD THEREFOR AND USE THEREOF” (HANGZHOU ZHONGMEIHUADONG PHARMACEUTICAL CO., LTD., priority 2022, published 2026).
